Data reported in the NIST ThermoML archive (doi:10.1016/j.jct.2015.07.028).

Assay: molar heat capacity at saturation pressure
Details: Liquid, Small (less than 1 g) adiabatic calorimetry

C=CC(C)(C)O [2-methyl-3-buten-2-ol]
Details	molar heat capacity [J/K/mol]
246.77 K	194.9
247.82 K	195.6
247.97 K	195.7
248.89 K	196.3
249.15 K	196.4
250 K	197.1
250.07 K	197.1
250.13 K	197.2
250.55 K	197.4
251.14 K	197.8
251.38 K	197.9
252.31 K	198.7
252.44 K	198.8
252.58 K	198.8
253.39 K	199.4
253.62 K	199.5
254.55 K	200.3
254.63 K	200.3
254.88 K	200.5
255.63 K	201
255.85 K	201.2
256.68 K	201.8
256.78 K	201.9
257.32 K	202.4
257.86 K	202.7
258.07 K	202.9
258.73 K	203.4
259 K	203.6
259.76 K	204.2
260 K	204.4
260.78 K	205
262.18 K	206.2
262.83 K	206.7
264.6 K	208.1
264.88 K	208.4
266.93 K	210
267.01 K	210.2
268.98 K	211.8
269.4 K	212.2
270 K	212.7
271.03 K	213.5
271.79 K	214.3
273.08 K	215.2
273.15 K	215.4
274.18 K	216.2
275.13 K	217.1
276.55 K	218.4
277.18 K	218.9
278.91 K	220.5
279.23 K	220.7
280 K	221.4
281.26 K	222.6
281.28 K	222.6
283.33 K	224.4
283.61 K	224.6
285.38 K	226.2
285.94 K	226.8
287.43 K	228
288.26 K	228.9
289.48 K	229.9
290 K	230.3
290.57 K	230.9
291.53 K	231.6
292.87 K	232.8
293.58 K	233.4
295.16 K	234.7
295.63 K	235.2
297.44 K	236.8
297.69 K	236.9
298.15 K	237.4
299.72 K	238.7
299.74 K	238.7
300 K	238.9
301.79 K	240.4
303.84 K	242.1
305.9 K	243.7
307.95 K	245.3
310 K	246.9
310.01 K	246.9
312.06 K	248.3
314.12 K	249.9
316.18 K	251.3
318.23 K	252.8
320 K	253.9
320.29 K	254.1
322.35 K	255.4
324.41 K	256.7
326.47 K	258
328.53 K	259.1
330 K	259.9
330.59 K	260.2
332.65 K	261.4
334.71 K	262.3
336.78 K	263.3
338.84 K	264.2
340 K	264.7
340.9 K	265
342.97 K	265.8
345.03 K	266.6
347.09 K	267.3
349.16 K	268
350 K	268.3
351.22 K	268.7
353.29 K	269.1
355.35 K	269.8
357.42 K	270.4
359.48 K	270.9
360 K	270.9
361.55 K	271.3
363.61 K	271.6
365.68 K	272.1
367.74 K	272.4
370 K	272.9
